Tests used:
[1] = Acute toxicity determination (LD50); format: in vivo; settings: Albino Swiss, mouse, in vivo, ip, mice observed for 72 hours
Method: (§1) The acute toxicity determination (LD50) for compounds of formula 1 was performed. Compounds were given intraperitoneally (i.p.) in doses ranging from 0.1-5 mmol/kg. […] All behavioral changes and death during the observation periods were recorded. The percentage of death at each dose level was then calculated, and the LD50 values were obtained (Ghosh, M., Fundamentals of Experimental Pharmacology, Scientific Book Agency, Calcutta. 1984, pp 153-158, 187-189). The protective index (PI) and therapeutic index (TI) of each compound were calculated.
(§2) Initially the approximate LD100 of each test compound was determined. Albino Swiss mice (25 g body weight) were then divided into 4 groups (6 mice each). Each group was then injected with one of 4 selected doses the highest being the LD100 dose. The animals were then observed closely for 4 hours and then occasionally for 72 hours. The percentage of death in each group was then calculated. The LD50 doses were then calculated using the Profit method (Ghosh; M., Fundamentals of Experimental Pharmacology, Scientific Book Agency, Calcutta. 1984, pp 153-158, 187-189).
(§3) The protective index (PI) - i.e. the value that indicates the margin of safety and tolerance of the test compound was calculated by the formula: Protective index (PI) = TD50/ED50. The Therapeutic Index was calculated by the formula: Therepeutic index (TI) = LD50/ED50 (Löscher, W. et al. Epilepsy Res. 1991, 9, 1-10).

[2] = system: Albino Swiss mice; test: Acute toxicity determination (LD50); format: in vivo; settings: Therapeutic index = LD50/ED50 (values match the PTZ ED50)
Method: as §1, §2, §3

[3] = system: Swiss albino mice; test: animal or person; format: in vivo; settings: for ED50: Mus musculus, ip; for % Protection: Picrotoxin (8 mg/kg, IP) given 30 min after compound i.p., dose SGH-35 200 mg/kg (0.78 mmol/kg), SGH-40 100 mg/kg (0.38 mmol/kg), 4 animals; for PI: Protective index = TD50/ED50, Pic ED50
Method: (§4) Adult male Swiss albino mice (22-28 g), approximately 10-week old, were used to conduct the anticonvulsant evaluation. They were housed in cages and kept at a temperature of 20 ± 2°C and a relative humidity of 55 ± 5% with a light-dark cycle of 12 h and fed with standard diet and water ad libitum. Compounds of the formula 1 have been dissolved in dimethylsulfoxide and administered at dose levels of 25, 50, 100 and 200 mgl/kg intraperitoneal (i.p.). Sodium valproate was freshly dissolved in 0.9 % NaCl and used at dose level of 200 mg/kg (1.38 mmol/kg) i.p., 30 min after the test compounds as a positive control. A control group of mice was included and received intraperitoneal (i.p.) injections of the test compounds' vehicle. […] Picrotoxin (pic) was freshly dissolved in 1 ml 0.1N warmed HCl and the final volume was made up with 0.9 % NaCl. It has been used at dose level of 10 mg/kg i.p. and was given 30 min after the test compounds.
(§5) The anticonvulsant activity of compounds of the formula 1 in mice was measured using Pentylenetetrazole (PTZ) seizure threshold test (White, H.S. et al. In Antiepileptic Drugs, 4th ed.; L,evy, R.H. et al., Eds, Raven: New York, 1995, pp 99-121). The active compounds of the formula 1 were further tested against maximal electroshock seizure (MES), and picrotoxin induced clonic convulsions, to explore the involvement of GABA-ergic receptors in their anticonvulsant activity. The effect of compounds of the formula 1 on motor performance was studied by chimney test (Dauge, V. et al. Neuropsychopharmacology 2001, 25, 690-98). Median effective (ED50), and median sedative (TD50) were calculated.
Swiss albino mice (25 g body weight) were injected with 25, 50, 100 and 200 mg/kg of SGH-35 and SGH-40 (4 mice, i.p.). 30 min later, animals were injected sc with Pic (10 mg/kg) and observed for 30 min and the percentage protection against convulsive seizures for each compound was calculated (Table I).
(§6) In each of the chemical and the electrical methods described above, Swiss albino mice were divided into 4 groups (N = 4 animals). Each group was injected (i.p.) with one of the four selected doses that have proven to obtain a variable percentage of protection […] before the convulsants. The effective dose 50 (ED50) i.e. the dose that protected half of the animals was then calculated using the log-probit method (White, H.S. et al. In Antiepileptic Drugs, 4th ed.; Levy, R.H.et al., Eds, Raven: New York, 1995, pp 99-121).

[4] = system: Swiss albino mice; test: Maximal electroshock (MES) seizure test; format: in vivo; settings: for % Protection: MES applied 30 min after compound i.p., dose SGH-35 200 mg/kg (0.78 mmol/kg), SGH-40 100 mg/kg (0.38 mmol/kg), 4 animals; for ED50: Mus musculus, ip, MES, median effective dose, log-probit method; for PI: Protective index = TD50/ED50, MES ED50
Method: as §5
The maximal electroshock (MES) seizure is one of the electrical test used to evaluate anticonvulsant activity (White, H.S. et al. In Antiepileptic Drugs, 4th ed.; Levy, R.H. et al., Eds, Raven New York, 1995, pp 99-121). […] Swiss albino mice (25 g body weight) were injected with 25, 50, 100 and 200 mg/kg of SGH-35 and SGH-40 i.p. 30 min later, mice were restrained by hand and subjected to electric shock through their ears, and released immediately following electrical stimulation, to permit observation of the maximal seizure. The maximal seizure typically consists of a short period of initial tonic flexioni and a prolonged period of tonic extension (especially the hind limb). Protection was defined as complete absence of hind limb tonic extension (Table 1).
as §6

[5] = Minimal neurotoxicity (chimney test), motor performance; format: in vivo, mice; settings: Swiss albino, mouse, in vivo, ip; median sedative dose; chimney test at 15 and 25 min after i.p. administration
Method: as §5
(§7) The effect of SGH-35 and SGH-40 on motor performance was studied by chimney test (Dauge, V. et al. Neuropsychopharmacology 2001, 25, 690-98). At 15 and 25 min after i.p. administration of compounds SGH-35 and SGH-40, the inability of mice to climb up backwards in a glass tube of 25 cm length and 3 cm inner diameter within 30 sec was recorded and taken as a measure of neurological deficits. Normal mice climb up in 5-10 sec. The dose that impaired the motor coordination in 50% of the animals tested was labeled as the median toxin dose 50 (TD50).

[6] = system: Swiss albino mice; test: as above; format: in vivo; settings: median sedative dose; chimney test at 15 and 25 min after i.p. administration
Method: as §5, §7

[7] = system: Swiss albino mice; test: animal or person; format: in vivo; settings: for ED50: Mus musculus, ip, PTZ, median effective dose, log-probit method; for % Protection: PTZ 100 mg/kg i.p. given 30 min after compound i.p., dose SGH-35 200 mg/kg (0.78 mmol/kg), SGH-40 100 mg/kg (0.38 mmol/kg), 4 animals; for PI: male, Swiss albino, mouse, in vivo
Method: as §4, §5
Pentylenetetrazole (PTZ) seizure threshold test is used to evaluate the potential anticonvulsant activity of compounds of the formula 1 (White, H.S. Et al. In Antiepileptic Drugs, 4th ed.; Levy, R.H. et al., Eds, Raven: New York, 1995, pp 99-121). Each compound was tested in 4 mice groups (Swiss albino mice, 25 g body weight) for each dose level (25, 50, 100 and 200 mg/kg) and was given i.p. 30 min later, animals were received PTZ (100 mg./kg, i.p.) and observed for 30 min. A single 5 seconds episode of clonic spasms was taken as a threshold seizure. SGH-35 and SGH-40 produced 100% protection against PTZ-induced seizures, Table 1. Table 1: ED50, TD50, PI, LD50 and TI for SGH-35 and SGH-40.
as §6

| SMILES | LD50 at 72 h [1] | TI [2] | ED50 [3] | % Protection [3] | PI [3] | % Protection [4] | ED50 [4] | PI [4] | TD50 [5] | TD50 [6] | ED50 [7] | % Protection [7] | PI [7] |
| --- | --- | --- | --- | --- | --- | --- | --- | --- | --- | --- | --- | --- | --- |
| CCOC(=O)C1=C(C)N2CCCC(=O)N=C2S1 [SGH-35, Ethyl 3-methyl-8-oxo-5,6,7,8-tetrahydro-thiarolo[3,2-a][1,3]diazepinie-2-carboxylate] | 670 mg/kg | 5.28 | 148 ± 11.1 mg/kg | 100% | 1.35 | 100% | 90 ± 5.7 mg/kg | 2.22 | 200 ± 12.3 mg/kg | 200 ± 12.3 mg/kg | 127 ± 9.3 mg/kg | 100% | 1.57 |
| CC1=C(Br)SC2=NC(=O)CCCN21 [SGH-40, 2-Bromo-3-methyl-6,7-dihydro-thiazolo[3,2-a][1,3]diazepin-8(5H)-one] | 640 mg/kg | 5.71 | 129 ± 6.1 mg/kg | 100% | 1.31 | 100% | 78 ± 4.1 mg/kg | 2.17 | 170 ± 6.9 mg/kg | 170 ± 6.9 mg/kg | 112 ± 3.9 mg/kg | 100% | 1.51 |
